Results as given in US9878986B2, “Compounds for selective histone deacetylase inhibitors, and pharmaceutical composition comprising the same” (CHONG KUN DANG PHARMACEUTICAL CORP., priority 2013, dated 2018).

How the values were obtained:
HDAC1 = HDAC1 (Homo sapiens, UniProt Q13547); test: Test of HDAC activities, HDAC1 Fluorimetric Drug Discovery Assay Kit; assay type: biochemical; design: purchased Enzolifesciences BML-AK511; conditions: samples at 100, 1000, 10000 nM; 37° C. 60 minutes; fluorescence Ex 390, Em 460; read-out: HDAC inhibitory activities, HDAC1
Sequence of HDAC1 (Q13547 whole entry): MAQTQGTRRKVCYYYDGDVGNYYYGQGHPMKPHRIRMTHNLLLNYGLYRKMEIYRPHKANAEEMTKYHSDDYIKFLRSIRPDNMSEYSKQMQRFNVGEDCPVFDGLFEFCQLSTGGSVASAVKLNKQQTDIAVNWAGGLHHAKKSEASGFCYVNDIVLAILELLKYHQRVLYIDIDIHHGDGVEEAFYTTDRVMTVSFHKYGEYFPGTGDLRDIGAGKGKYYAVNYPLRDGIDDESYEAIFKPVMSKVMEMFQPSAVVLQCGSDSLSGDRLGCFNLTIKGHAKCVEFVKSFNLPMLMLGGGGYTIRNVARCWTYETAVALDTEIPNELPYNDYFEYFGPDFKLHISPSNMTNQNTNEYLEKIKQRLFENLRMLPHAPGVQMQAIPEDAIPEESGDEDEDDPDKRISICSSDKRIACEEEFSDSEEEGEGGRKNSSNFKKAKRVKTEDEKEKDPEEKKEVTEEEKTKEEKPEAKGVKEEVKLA
Method in brief: (§1)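 HDAC1 tested at 100, 1000 and 10000 nM; recombinant human HDAC6 at 0.1, 1, 10, 100 and 1000 nM. Reaction 60 min at 37° C, then developer for 30 min at 37° C; fluorescence read at Ex 390/Em 460.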

HDAC 6 = molecular target: T1, HDAC 6 (Homo sapiens, UniProt Q9UBN7); test: Test of HDAC activities, HDAC6 (fluorimetric); assay type: biochemical; design: purchased Calbiochem 382180; conditions: samples at 0.1, 1, 10, 100, 1000 nM; 37° C. 60 minutes; fluorescence Ex 390, Em 460; read-out: HDAC inhibitory activities, HDAC6
T1 sequence (Q9UBN7 1-1215): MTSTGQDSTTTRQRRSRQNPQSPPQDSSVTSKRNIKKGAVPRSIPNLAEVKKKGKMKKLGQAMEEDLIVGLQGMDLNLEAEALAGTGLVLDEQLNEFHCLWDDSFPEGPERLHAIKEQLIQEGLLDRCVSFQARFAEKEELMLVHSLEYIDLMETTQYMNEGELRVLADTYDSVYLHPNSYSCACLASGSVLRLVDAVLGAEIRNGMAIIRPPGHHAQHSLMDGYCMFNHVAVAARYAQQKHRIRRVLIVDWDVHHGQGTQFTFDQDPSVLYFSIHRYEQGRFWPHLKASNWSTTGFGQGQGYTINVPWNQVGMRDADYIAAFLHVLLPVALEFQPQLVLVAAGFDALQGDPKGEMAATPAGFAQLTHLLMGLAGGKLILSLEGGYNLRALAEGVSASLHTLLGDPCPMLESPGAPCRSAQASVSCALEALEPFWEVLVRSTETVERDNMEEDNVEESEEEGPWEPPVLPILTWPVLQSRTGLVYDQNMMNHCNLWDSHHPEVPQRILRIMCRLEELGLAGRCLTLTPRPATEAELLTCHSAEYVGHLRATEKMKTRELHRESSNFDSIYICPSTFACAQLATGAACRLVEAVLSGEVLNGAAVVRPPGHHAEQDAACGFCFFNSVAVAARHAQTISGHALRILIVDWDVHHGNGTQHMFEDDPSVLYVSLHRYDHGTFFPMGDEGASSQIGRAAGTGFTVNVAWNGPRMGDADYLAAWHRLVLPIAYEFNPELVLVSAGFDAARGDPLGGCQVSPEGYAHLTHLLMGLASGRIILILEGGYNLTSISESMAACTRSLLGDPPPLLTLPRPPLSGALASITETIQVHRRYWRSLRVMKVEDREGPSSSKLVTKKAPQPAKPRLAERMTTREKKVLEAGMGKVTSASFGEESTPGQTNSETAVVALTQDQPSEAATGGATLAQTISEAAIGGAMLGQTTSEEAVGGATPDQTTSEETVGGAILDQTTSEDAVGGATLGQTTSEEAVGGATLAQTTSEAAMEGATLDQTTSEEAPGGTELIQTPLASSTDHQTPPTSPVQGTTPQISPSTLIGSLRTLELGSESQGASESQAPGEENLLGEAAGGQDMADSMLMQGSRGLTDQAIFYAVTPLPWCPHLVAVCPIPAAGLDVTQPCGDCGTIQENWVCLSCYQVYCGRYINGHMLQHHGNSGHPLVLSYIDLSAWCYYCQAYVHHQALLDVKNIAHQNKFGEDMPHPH
Method in brief: as §1

Structure (SMILES) | IC50 (HDAC1) | IC50 (HDAC 6)
O=C(NO)c1ccc(CN(C(=O)N2CCCCC2)c2cccc(-c3ccc4c(c3)OCO4)c2)cc1 [Compound 462, N-(3-(benzo[d][1,3]dioxol-5-yl)phenyl)-N-(4-(hydroxycarbamoyl)benzyl)piperidine-1-carboxamide] | 1930 nM | 14 nM
O=C(NO)c1ccc(CN(C(=O)N2CCC(O)CC2)c2cccc(-c3ccc4c(c3)OCO4)c2)cc1 [Compound 463, N-(3-(benzo[d][1,3]dioxol-5-yl)phenyl)-4-hydroxy-N-(4-(hydroxycarbamoyl)benzyl)piperidine-1-carboxamide] | 284 nM | 3 nM
CC1CN(C(=O)N(Cc2ccc(C(=O)NO)cc2)c2cccc(-c3ccc4c(c3)OCO4)c2)CC(C)O1 (stereo not drawn) [Compound 464, N-(3-(benzo[d][1,3]dioxol-5-yl)phenyl)-N-(4-(hydroxycarbamoyl)benzyl)-2,6-dimethylmorpholine-4-carboxamide] | 1170 nM | 10 nM
O=C(NO)c1ccc(CN(C(=O)N2CCC(O)(c3ccccc3)CC2)c2cccc(-c3ccc4c(c3)OCO4)c2)cc1 [Compound 465, N-(3-(benzo[d][1,3]dioxol-5-yl)phenyl)-4-hydroxy-N-(4-(hydroxycarbamoyl)benzyl)-4-phenylpiperidine-1-carboxamide] | 2280 nM | 9 nM
CN1CCN(C(=O)N(Cc2ccc(C(=O)NO)cc2)c2cccc(-c3ccc4c(c3)OCO4)c2)CC1 [Compound 466, N-(3-(benzo[d][1,3]dioxol-5-yl)phenyl)-N-(4-(hydroxycarbamoyl)benzyl)-4-methylpiperazine-1-carboxamide] | 408 nM | 3 nM
O=C(NO)c1ccc(CN(C(=O)N2CCN(CCO)CC2)c2cccc(-c3ccc4c(c3)OCO4)c2)cc1 [Compound 467, N-(3-(benzo[d][1,3]dioxol-5-yl)phenyl)-N-(4-(hydroxycarbamoyl)benzyl)-4-(2-hydroxyethyl)piperazine-1-carboxamide] | 240 nM | 1 nM
O=C(NO)c1ccc(CN(C(=O)N2CCCC2)c2cccc(-c3ccc4c(c3)OCO4)c2)cc1 [Compound 468, N-(3-(benzo[d][1,3]dioxol-5-yl)phenyl)-N-(4-(hydroxycarbamoyl)benzyl)pyrrolidine-1-carboxamide] | 12300 nM | 10 nM
O=C(NO)c1ccc(CN(C(=O)N2CCC[C@H]2CO)c2cccc(-c3ccc4c(c3)OCO4)c2)cc1 [Compound 469, (S)—N-(3-(benzo[d][1,3]dioxol-5-yl)phenyl)-N-(4-(hydroxycarbamoyl)benzyl)-2-(hydroxymethyl)pyrrolidine-1-carboxamide] | 5340 nM | 12 nM
O=C(NO)c1ccc(CN(C(=O)N2CCN(C(=O)C3CC3)CC2)c2cccc(-c3ccc4c(c3)OCO4)c2)cc1 [Compound 470, N-(3-(benzo[d][1,3]dioxol-5-yl)phenyl)-4-(cyclopropanecarbonyl)-N-(4-(hydroxycarbamoyl)benzyl)piperazine-1-carboxamide] | 635 nM | 1 nM
O=C(NO)c1ccc(CN(C(=O)N2CCC2)c2cccc(-c3ccc4c(c3)OCO4)c2)cc1 [Compound 471, N-(3-(benzo[d][1,3]dioxol-5-yl)phenyl)-N-(4-(hydroxycarbamoyl)benzyl)azetidine-1-carboxamide] | 1150 nM | 14 nM
CN1CCN(C(=O)N(Cc2ccc(C(=O)NO)cc2)c2ccc(F)c(Cl)c2)CC1 [Compound 478, N-(3-chloro-4-fluorophenyl)-N-(4-(hydroxycarbamoyl)benzyl)-4-methylpiperazine-1-carboxamide] | 190 nM | 9 nM
CCN1CCN(C(=O)N(Cc2ccc(C(=O)NO)cc2)c2ccc(F)c(Cl)c2)CC1 [Compound 479, N-(3-chloro-4-fluorophenyl)-4-ethyl-N-(4-(hydroxycarbamoyl)benzyl)piperazine-1-carboxamide] | 280 nM | 7 nM
